# Data from patent US20250163104A1, “MACROCYCLIC IMMUNOMODULATORS” (priority 2021, published 2025).
# Where a SMILES comes first, the peptide text is derived from it. Bridges are numbered along the chain shown (N, C = ends). [ ]: non-standard residue; d: D form. The star is where a group is joined. ξ: configuration not given here. Ala(1-amidino-4-piperidyl) = N=C(N)N1CCC(C[C@H](N)C(=O)O)CC1; Phe(4-COOH) = N[C@@H](Cc1ccc(C(=O)O)cc1)C(=O)O; Phe(4-CH2NH2) = NCc1ccc(C[C@H](N)C(=O)O)cc1; Bip = N[C@@H](Cc1ccc(-c2ccccc2)cc1)C(=O)O; Phe(3-Me) = Cc1cccc(C[C@H](N)C(=O)O)c1; Val(3-OH) = CC(C)(O)[C@H](N)C(=O)O; 4Pal = N[C@@H](Cc1ccncc1)C(=O)O; Cha = N[C@@H](CC1CCCCC1)C(=O)O; Cit = NC(=O)NCCC[C@H](N)C(=O)O; Ile(3ξ) = CCC(C)[C@H](N)C(=O)O; Thr(3ξ) = CC(O)[C@H](N)C(=O)O; Carboxymethyl = O=C(O)C*; Orn = NCCC[C@H](N)C(=O)O; Pra = C#CC[C@H](N)C(=O)O; Dab = NCC[C@H](N)C(=O)O; Dap = NC[C@H](N)C(=O)O; ξA = CC(N)C(=O)O
# Biological target: T1, human PD-1 / PD-L1-Ig binding on Jurkat cell line over-expressing human PD-1 (Jurkat-PD-1) (Homo sapiens, UniProt Q15116)
# T1 construct: expressed in transfected cells; host or cells: Jurkat
# Experiment: Jurkat-PD-1 Cell Binding High-Content Screening Assay (CBA)
# Format: cell-based
# Conditions: Jurkat-PD-1 cells, PE-labeled PD-L1-Ig 20 nM final; read-out: Jurkat HPD1_PDL1 IC50
# Method in brief: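 Jurkat-hPD-1 cells in DMEM with 10% fetal calf serum receive test compound and are held at 37° C for 2 h. PE-labeled PD-L1-Ig is added at 20 nM final and left for 1 hour. Cells are then fixed and Hoechst-stained, and binding is measured by imaging.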
# T1 sequence (Q15116 25-288): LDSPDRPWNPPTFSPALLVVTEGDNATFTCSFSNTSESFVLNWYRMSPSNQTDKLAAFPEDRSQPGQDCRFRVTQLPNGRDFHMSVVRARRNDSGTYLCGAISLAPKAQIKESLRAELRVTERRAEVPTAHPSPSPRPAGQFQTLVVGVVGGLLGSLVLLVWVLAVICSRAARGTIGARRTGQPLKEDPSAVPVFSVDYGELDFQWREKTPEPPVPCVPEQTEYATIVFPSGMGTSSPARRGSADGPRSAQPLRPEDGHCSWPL
row,SMILES,IC50
1,C#CC[C@H](NC(=O)CNC(=O)[C@@H]1CSCC(=O)N[C@@H](CCN)C(=O)N[C@@H](Cc2ccc(OCC(=O)O)cc2)C(=O)N[C@@H](CC(=O)O)C(=O)N[C@@H](Cc2c[nH]c3ccccc23)C(=O)N[C@@H](C(C)C)C(=O)N[C@@H](Cc2ccc(-c3ccccc3)cc2)C(=O)N[C@@H](C(C)CC)C(=O)N[C@@H](CCCN)C(=O)N[C@H](CC(C)C)C(=O)N[C@@H](CCN)C(=O)N[C@@H](CC2CCCCC2)C(=O)N[C@@H](C(C)(C)O)C(=O)N[C@@H](CO)C(=O)N1)C(=O)O (stereo partly drawn) [Compound 2322] ({CH2CO}-[Dab]Y(Carboxymethyl)DWV[Bip][Ile(3ξ)][Orn][dL][Dab][Cha][Val(3-OH)]SCG[Pra]-OH; thioether N-14),76.8 nM
2,C#CC[C@H](NC(=O)[C@H](CCN)NC(=O)[C@@H]1CSCC(=O)N[C@@H](Cc2ccncc2)C(=O)N[C@@H](Cc2ccc(C(=O)O)cc2)C(=O)N[C@@H](CC(=O)O)C(=O)N[C@@H](Cc2cccc(C)c2)C(=O)N[C@@H](Cc2ccc(OCC(=O)O)cc2)C(=O)N[C@@H](Cc2ccc(-c3ccccc3)cc2)C(=O)N[C@@H](Cc2ccc(OCC(=O)O)cc2)C(=O)N[C@@H](CCCN)C(=O)N[C@H](CC(C)C)C(=O)N[C@@H](CCN)C(=O)N[C@@H](CC2CCCCC2)C(=O)N[C@@H](C(C)(C)O)C(=O)N[C@@H](CO)C(=O)N1)C(=O)O [Compound 2324] ({CH2CO}-[4Pal][Phe(4-COOH)]D[Phe(3-Me)]Y(Carboxymethyl)[Bip]Y(Carboxymethyl)[Orn][dL][Dab][Cha][Val(3-OH)]SC[Dab][Pra]-OH; thioether N-14),247 nM
3,C#CC[C@H](NC(=O)[C@@H](C)NC(=O)[C@@H]1CSCC(=O)N[C@@H](Cc2ccncc2)C(=O)N[C@@H](Cc2ccc(OCC(=O)O)cc2)C(=O)N[C@@H](CC(=O)O)C(=O)N[C@@H](Cc2cccc(C)c2)C(=O)N[C@@H](Cc2ccc(OCC(=O)O)cc2)C(=O)N[C@@H](Cc2ccc(-c3ccccc3)cc2)C(=O)N[C@@H](Cc2ccc(OCC(=O)O)cc2)C(=O)N[C@@H](CCCN)C(=O)N[C@H](CC(C)C)C(=O)N[C@@H](CCN)C(=O)N[C@@H](CC2CCCCC2)C(=O)N[C@@H](C(C)(C)O)C(=O)N[C@@H](CO)C(=O)N1)C(N)=O [Compound 2328] ({CH2CO}-[4Pal]Y(Carboxymethyl)D[Phe(3-Me)]Y(Carboxymethyl)[Bip]Y(Carboxymethyl)[Orn][dL][Dab][Cha][Val(3-OH)]SC[dA][Pra]-NH2; thioether N-14),632 nM
4,C#CC[C@H](NC(=O)C(C)NC(=O)[C@@H]1CSCC(=O)N[C@@H](Cc2ccncc2)C(=O)N[C@@H](Cc2ccc(C(=O)O)cc2)C(=O)N[C@@H](CC(=O)O)C(=O)N[C@@H](Cc2cccc(C)c2)C(=O)N[C@@H](Cc2ccc(OCC(=O)O)cc2)C(=O)N[C@@H](Cc2ccc(-c3ccccc3)cc2)C(=O)N[C@@H](Cc2ccc(OCC(=O)O)cc2)C(=O)N[C@@H](CCCN)C(=O)N[C@H](CC(C)C)C(=O)N[C@@H](CCN)C(=O)N[C@@H](CC2CCCCC2)C(=O)N[C@@H](C(C)(C)O)C(=O)N[C@@H](CO)C(=O)N1)C(N)=O (stereo partly drawn) [Compound 2329] ({CH2CO}-[4Pal][Phe(4-COOH)]D[Phe(3-Me)]Y(Carboxymethyl)[Bip]Y(Carboxymethyl)[Orn][dL][Dab][Cha][Val(3-OH)]SC[ξA][Pra]-NH2; thioether N-14),973 nM
5,Cc1cccc(C[C@@H]2NC(=O)[C@H](CC(=O)O)NC(=O)[C@H](Cc3ccc(C(=O)O)cc3)NC(=O)[C@H](Cc3ccncc3)NC(=O)CSC[C@@H](C(=O)N[C@@H](CCN)C(N)=O)NC(=O)[C@H](CCC(=O)O)NC(=O)[C@H](C(C)(C)O)NC(=O)[C@H](CC3CCCCC3)NC(=O)[C@H](CCN)NC(=O)[C@@H](CC(C)C)NC(=O)[C@H](CCCN)NC(=O)[C@H](Cc3ccc(OCC(=O)O)cc3)NC(=O)[C@H](Cc3ccc(-c4ccccc4)cc3)NC(=O)[C@H](Cc3ccc(OCC(=O)O)cc3)NC2=O)c1 [Compound 2330] ({CH2CO}-[4Pal][Phe(4-COOH)]D[Phe(3-Me)]Y(Carboxymethyl)[Bip]Y(Carboxymethyl)[Orn][dL][Dab][Cha][Val(3-OH)]EC[Dab]-NH2; thioether N-14),249 nM
6,CC(=O)NCCCC[C@@H]1NC(=O)[C@H](CCCNC(N)=O)NC(=O)[C@H](Cc2ccc(-c3ccccc3)cc2)NC(=O)[C@H](CC(C)C)NC(=O)[C@H](Cc2c[nH]c3ccccc23)NC(=O)[C@H](CC(N)=O)NC(=O)[C@H](Cc2ccc(OCC(=O)O)cc2)NC(=O)[C@H](Cc2ccccc2)NC(=O)CSC[C@@H](C(=O)N[C@@H](C)C(N)=O)NC(=O)[C@H](CO)NC(=O)[C@H](C(C)C)NC(=O)[C@H](CC2CCCCC2)NC(=O)[C@H](CC(N)=O)NC(=O)[C@@H](CC(C)C)NC1=O [Compound 2502] ({CH2CO}-FY(Carboxymethyl)NWL[Bip][Cit]K(Ac)[dL]N[Cha]VSCA-NH2; thioether N-14),50.8 nM
7,CCC(C)[C@@H]1NC(=O)[C@H](Cc2ccc(-c3ccccc3)cc2)NC(=O)[C@H](C(C)C)NC(=O)[C@H](Cc2c[nH]c3ccccc23)NC(=O)[C@H](CC(=O)O)NC(=O)[C@H](Cc2ccc(O)cc2)NC(=O)[C@H](Cc2ccncc2)NC(=O)CSC[C@@H](C(=O)N[C@@H](C)C(N)=O)NC(=O)[C@H](C(C)O)NC(=O)[C@H](C(C)C)NC(=O)[C@H](CC2CCCCC2)NC(=O)[C@H](CC(N)=O)NC(=O)[C@@H](CC(C)C)NC(=O)[C@H](Cc2ccc(CN)cc2)NC1=O (stereo partly drawn) [Compound 2506] ({CH2CO}-[4Pal]YDWV[Bip][Ile(3ξ)][Phe(4-CH2NH2)][dL]N[Cha]V[Thr(3ξ)]CA-NH2; thioether N-14),70.6 nM

# Compounds with a lower IC50, results first:
row,IC50,SMILES
1,7.7 nM,C#CC[C@H](NC(=O)[C@@H](C)NC(=O)[C@@H]1CSCC(=O)N[C@@H](Cc2c[nH]cn2)C(=O)N[C@@H](Cc2ccc(OCC(=O)O)cc2)C(=O)N[C@@H](CC(=O)O)C(=O)N[C@@H](Cc2c[nH]c3ccccc23)C(=O)N[C@@H](C(C)C)C(=O)N[C@@H](Cc2ccc(-c3ccccc3)cc2)C(=O)N[C@@H](C(C)C)C(=O)N[C@@H](CCCN)C(=O)N[C@H](CC(C)C)C(=O)N[C@@H](CCN)C(=O)N[C@@H](CC2CCCCC2)C(=O)N[C@@H](C(C)(C)O)C(=O)N[C@@H](CO)C(=O)N1)C(N)=O [Compound 2326] ({CH2CO}-HY(Carboxymethyl)DWV[Bip]V[Orn][dL][Dab][Cha][Val(3-OH)]SC[dA][Pra]-NH2; thioether N-14)
2,8.5 nM,C#CC[C@H](NC(=O)[C@@H](C)NC(=O)[C@@H]1CSCC(=O)N[C@@H](Cc2c[nH]cn2)C(=O)N[C@@H](Cc2ccc(OCC(=O)O)cc2)C(=O)N[C@@H](CC(=O)O)C(=O)N[C@@H](Cc2c[nH]c3ccccc23)C(=O)N[C@@H](C(C)C)C(=O)N[C@@H](Cc2ccc(-c3ccccc3)cc2)C(=O)N[C@@H](C(C)C)C(=O)N[C@@H](CCCN)C(=O)N[C@H](CC(C)C)C(=O)N[C@@H](CCN)C(=O)N[C@@H](CC2CCCCC2)C(=O)N[C@@H](C(C)(C)O)C(=O)N[C@@H](CO)C(=O)N1)C(N)=O [Compound 2327] ({CH2CO}-HY(Carboxymethyl)DWV[Bip]V[Orn][dL][Dab][Cha][Val(3-OH)]SC[dA][Pra]-NH2; thioether N-14)
3,10 nM,Cc1cccc(C[C@@H]2NC(=O)[C@H](CC(=O)O)NC(=O)[C@H](Cc3ccc(OCC(=O)O)cc3)NC(=O)[C@H](Cc3ccccc3)NC(=O)CSC[C@@H](C(=O)N[C@@H](C)C(N)=O)NC(=O)[C@H](C(C)O)NC(=O)[C@H](C(C)C)NC(=O)[C@H](CC3CCCCC3)NC(=O)[C@H](CN)NC(=O)[C@@H](CC(C)C)NC(=O)[C@H](CCCN)NC(=O)[C@H](CCCNC(N)=O)NC(=O)[C@H](Cc3ccc(-c4ccccc4)cc3)NC(=O)[C@H](C(C)C)NC2=O)c1 (stereo partly drawn) [Compound 2500] ({CH2CO}-FY(Carboxymethyl)D[Phe(3-Me)]V[Bip][Cit][Orn][dL][Dap][Cha]V[Thr(3ξ)]CA-NH2; thioether N-14)
4,17.3 nM,CC(=O)NCCCC[C@@H]1NC(=O)[C@H](CCCNC(N)=O)NC(=O)[C@H](Cc2ccc(-c3ccccc3)cc2)NC(=O)[C@H](C(C)C)NC(=O)[C@H](Cc2cccc(C)c2)NC(=O)[C@H](CC(N)=O)NC(=O)[C@H](Cc2ccc(OCC(=O)O)cc2)NC(=O)[C@H](Cc2ccccc2)NC(=O)CSC[C@@H](C(=O)N[C@@H](C)C(N)=O)NC(=O)[C@H](CO)NC(=O)[C@H](C(C)C)NC(=O)[C@H](CC2CCCCC2)NC(=O)[C@H](CC(N)=O)NC(=O)[C@@H](CC(C)C)NC1=O [Compound 2501] ({CH2CO}-FY(Carboxymethyl)N[Phe(3-Me)]V[Bip][Cit]K(Ac)[dL]N[Cha]VSCA-NH2; thioether N-14)
5,33 nM,CC(C)C[C@@H]1NC(=O)[C@H](Cc2c[nH]c3ccccc23)NC(=O)[C@H](CC(=O)O)NC(=O)[C@H](Cc2ccc(CN)cc2)NC(=O)[C@H](Cc2ccccc2)NC(=O)CSC[C@@H](C(=O)N[C@@H](C)C(N)=O)NC(=O)[C@H](CO)NC(=O)[C@H](C(C)C)NC(=O)[C@H](CC2CCCCC2)NC(=O)[C@H](CN)NC(=O)[C@@H](CC(C)C)NC(=O)[C@H](CCCN)NC(=O)[C@H](CCCNC(N)=O)NC(=O)[C@H](Cc2ccc(-c3ccccc3)cc2)NC1=O [Compound 2503] ({CH2CO}-F[Phe(4-CH2NH2)]DWL[Bip][Cit][Orn][dL][Dap][Cha]VSCA-NH2; thioether N-14)
6,15.9 nM,CC(C)C[C@H]1NC(=O)[C@H](CCCN)NC(=O)[C@H](CCCNC(N)=O)NC(=O)[C@H](Cc2ccc(-c3ccccc3)cc2)NC(=O)[C@H](C(C)C)NC(=O)[C@H](Cc2c[nH]c3ccccc23)NC(=O)[C@H](CC(=O)O)NC(=O)[C@H](Cc2ccc(OCC(=O)O)cc2)NC(=O)[C@H](CC2CCN(C(=N)N)CC2)NC(=O)CSC[C@@H](C(=O)N[C@@H](C)C(N)=O)NC(=O)[C@H](CO)NC(=O)[C@H](C(C)C)NC(=O)[C@H](CC2CCCCC2)NC(=O)[C@H](CN)NC1=O [Compound 2504] ({CH2CO}-[Ala(1-amidino-4-piperidyl)]Y(Carboxymethyl)DWV[Bip][Cit][Orn][dL][Dap][Cha]VSCA-NH2; thioether N-14)
